Experimental data taken from patent US10894811B2, “Peptide inhibitors of calcium channels” (The University of North Carolina at Chapel Hill, priority 2016, dated 2021).
Entries after “also recorded” stand apart in the source; their conditions may differ.

How the values were obtained:
[1] = system: house dust mite-exposed mouse; assay: House dust mite allergy model, HDM-specific IgE by ELISA; format: in vivo; details: SPLUNC1−/− mice, HDM challenge; α6 peptide intranasally day 15 and day 16; serum on day 17
Experimental: Nasal instillation of α6 peptides to mice: SPLUNC1^(−/−) mice were exposed to 2 μg house dust mite extract in 40 μl of PBS intranasally on days 0 and day 7. After this time, they were again challenged intranasally with 20 μg HDM in 40 μl of PBS from day 14 to day 16. We Then 320 μM of the short α6 peptide was added intranasally once per day on day 15 and on day 16 and the animals sacrificed on day 17. Bronchoalveolar lavage total and differential cell counts were performed using a Kwik-Diff™ Stain Kit (Thermo Scientific). After sacrificing the animals, blood was obtained by cardiac puncture and plasma was taken by spinning down whole blood. Serum HDM-specific antibody levels were measured using an enzyme-linked immunosorbent assay (ELISA). Briefly, plates were coated overnight with 0.01% HDM in PBS and blocked with 1% BSA in PBS before the addition of serum samples that had been diluted 1:10 in blocking buffer and standards for 1 h. […] Plates were washed an additional six times, streptavidin-HRP (R&D Systems) was added for 30 min and the amount of bound HDM-specific antibody was determined using TMB substrate (Thermo Scientific). […] Using the same SPLUNC1^(−/−) mice/HDM challenge as described in FIG. 15, serum was obtained on day 17 and IgE measured by ELISA.

[2] = system: house dust mite-exposed mouse; assay: House dust mite allergy model, bronchoalveolar lavage cell counts; format: in vivo; details: SPLUNC1−/− mice, HDM challenge, day 17
Experimental: Nasal instillation of α6 peptides to mice: SPLUNC1^(−/−) mice were exposed to 2 μg house dust mite extract in 40 μl of PBS intranasally on days 0 and day 7. After this time, they were again challenged intranasally with 20 μg HDM in 40 μl of PBS from day 14 to day 16. We Then 320 μM of the short α6 peptide was added intranasally once per day on day 15 and on day 16 and the animals sacrificed on day 17. Bronchoalveolar lavage total and differential cell counts were performed using a Kwik-Diff™ Stain Kit (Thermo Scientific). After sacrificing the animals, blood was obtained by cardiac puncture and plasma was taken by spinning down whole blood. Serum HDM-specific antibody levels were measured using an enzyme-linked immunosorbent assay (ELISA). Briefly, plates were coated overnight with 0.01% HDM in PBS and blocked with 1% BSA in PBS before the addition of serum samples that had been diluted 1:10 in blocking buffer and standards for 1 h. Plates were washed 6× with PBS containing 0.05% Tween-20 before incubation with biotinylated anti-mouse IgE (Pharmingen) at a concentration of 2 μg/ml for 1 h. Plates were washed an additional six times, streptavidin-HRP (R&D Systems) was added for 30 min and the amount of bound HDM-specific antibody was determined using TMB substrate (Thermo Scientific). To test whether α6 peptides were efficacious in vivo, a well-characterized murine allergy model was used, the house dust mite-exposed mouse (Wu T et al., Nature Communications, 2017). Since SPLUNC1^(−/−) mice have asthma-like symptoms including spontaneous inflammation and airway hyperreactivity (Wu T et al., Nature Communications, 2017; Thaikoottathil et al., Am. J. Respir. Cell Mol. Biol. 47:253 (2012)), SPLUNC1^(−/−) mice were exposed to 20 μg HDM intranasally on day 0 and […]. After this time, they were challenged with 20 μg HDM intranasally from day 14 to day 17. […] of the short α6 peptide was administered intranasally once per day on day 15 and on day 16 and sacrificed the animals were sacrificed on day 17. Bronchoalveolar lavage was performed and total and differential cell counts performed (FIG. 15).

hASMCs = assay: Calcium imaging using fura-2 (thapsigargin-induced Ca2+ signaling); format: cell-based, human; details: for thapsigargin (TG)-induced Ca2+ flux (peak fura-2 ratio change): human ASMCs, co-incubated 1 h; for ability to suppress Ca2+ signaling, SPLUNC1 mutants/peptides: ASMCs pre-incubated with truncated SPLUNC1 peptides (FIG. 4H)
Experimental: Calcium imaging: Calcium imaging using fura-2 was adapted from a previous published protocol with minor modifications (Sheridan et al., J. Biol. Chem. 288:33509 (2013)). Briefly, hASMCs were loaded with 2 μM fura-2 AM (Invitrogen) and serosal media from HBEC cultures or recombinant SPLUNC1 at 37° C. for 1 h. Cultures were washed with a standard Ringer's solution (101 mM NaCl, 12 mM NaHCO3, 1.2 mM MgCl2, 1.2 mM CaCl2, […], 24 mM HEPES, 10 mM glucose, pH 7.4) or with Ca^2+-free Ringer's solution as indicated. Cultures were then placed in the Ringer's solution, and images were collected with a 40×1.4 NA oil objective on a Nikon Ti-S inverted microscope. Fura-2 fluorescence was acquired alternately at 340 and 380 nm (emission >450 nm) using LUDL filter wheels, obtained with an Orca FLASH 4.0 CMOS camera (Hammamatsu), and controlled with HCImageLive software. Cell bodies were identified as individual regions of interest (ROIs). Background subtraction was performed using a region without the cell. Signals were converted to relative changes (F/F0) where F0 was the ratio of the average fluorescent intensity (340/380) of ROIs at 0 time point. A total of 20 cells/coverslip were recorded. ΔF/F0 represents average peak fluorescent intensity changes of three independent experiments.

DITLVHDIVNMLIHG (listed as Homo sapiens) [SEQ ID NO:3, amino acids 235-249 of human SPLUNC1]
plasma (serum) HDM-specific IgE levels [1]: significantly reduced; also recorded: reduce blood IgE levels | eosinophil influx (bronchoalveolar lavage) ([2]; peptide 320 μM / 320 μM intranasally once per day on day 15 and day 16): decreased | bronchoalveolar lavage total cell count ([2]; peptide 320 μM / 320 μM intranasally once per day on day 15 and day 16, listed as short α6 peptide): significantly reduced | bronchoalveolar lavage total cell count ([2]; peptide 320 μM / 320 μM intranasally once per day on day 15 and day 16, listed as α6 peptide): reduce inflammatory cell counts | neutrophil influx (bronchoalveolar lavage) ([2]; peptide 320 mM / 320 μM intranasally once per day on day 15 and day 16): decreased

DITLVHDIVNMLIHGLQFVIKV (listed as Homo sapiens) [SEQ ID NO:2, amino acids 235-256 of human SPLUNC1]
thapsigargin (TG)-induced Ca2+ flux (peak fura-2 ratio change) (hASMCs): inhibited | thapsigargin (TG)-induced Ca2+ flux (peak fura-2 ratio change) (hASMCs; listed as SPLUNC1 derived peptide): inhibits thapsigargin-induced Ca^2+ release

S18: N-terminal S18 region of SPLUNC1, its ENaC regulatory domain; synthesized peptide (GGLPVPLDQTLPLNVNPA) [reference compound]
ability to suppress Ca2+ signaling, SPLUNC1 mutants/peptides (hASMCs): did not inhibit SOCE

B1: mouse SPLUNC1: mouse SPLUNC1 protein (protein)
chain: QLAGLPLPLGQGPPLPLNQGPPLPLNQGQLLPLAQGLPLAVSPALPSNPTDLLAGKFTDALSGGLLSGGLLGILENIPLLDVIKSGGGNSNGLVGGLLGKLTSSVPLLNNILDIKITDPQLLELGLVQSPDGHRLYVTIPLGLTLNVNMPVVGSLLQLAVKLNITAEVLAVKDNQGRIHLVLGDCTHSPGSLKISLLNGVTPVQSFLDNLTGILTKVLPELIQGKVCPLVNGILSGLDVTLVHNIAELLIHGLQFVIKV
ability to suppress Ca2+ signaling, SPLUNC1 mutants/peptides (hASMCs): Inhibition was not different
